From US20100184769A1, “PDE INHIBITORS FOR THE TREATMENT OF HEARING IMPAIRMENT” (BAYER SCHERING PHARMA AKTIENGESELLSCHAFT, priority 2007, published 2010)

System: acustic trauma and threshold levels of rats
Experiment: Acoustic trauma (AT) in rats, hearing thresholds by auditory brainstem responses (ABR)
Assay type: in vivo, female Sprague Dawley Rats
Settings: 10 mg/kg p.o. twice daily
Protocol: All animal experiments were performed due to the “German Law for the Protection of Laboratory animals” and were conducted due to the approved guidelines for Animal Health and Welfare. Experiments were performed with female Sprague Dawley Rats with a body weight between 300-400 g. For induction of acoustic trauma (AT) animals were kept under anesthezia (Ketamine, Xylazin, Rompun i.p. injection) and exposed to band noise or pure tones using a calibrated loudspeaker inside a reverberating chamber. The sound consists of a continuous 10 kHz pure-tone presented at 115 dB SPL. All acoustic stimuli were calibrated at the head level of the animal. Rats were treated with either Vardenafil [10 mg/kg/ p.o. dissolved in Ethanol/Solutol/Water (10/40/50) with an application volume of 5 ml/kg] or Placebo [Ethanol/Solutol/Water (10/40/50) with an application volume of 5 ml/kg] twice daily. The first treatment with Vardenafil or Placebo was i.e. 1 h prior to AT. The development and progression/remission of hearing impairment was detected by measuring the hearing thresholds by recordings of auditory brainstem responses (ABR). The threshold was determined by the lowest sound pressure that produced ARBs distinct from noise level. Threshold level analysis was performed prior to the acustic trauma (AT) (Measurement A in table 1), 3-5 hours post AT (Measurement B in table 1), once daily, from day 1 to day 7 post AT (Measurement C to I in table 1) and finally 3 weeks post AT (Measurement J in table 1).

CCCc1nc(C)c2c(=O)[nH]c(-c3cc(S(=O)(=O)N4CCN(CC)CC4)ccc3OCC)nn12 [Vardenafil, 2-(2-Ethoxy-5-(4-ethylpiperazin-1-yl-1-sulfonyl)phenyl)-5-methyl-7-propyl-3H-imidazo (5,1-f) (1,2,4)triazin-4-one]
Hearing Threshold, Measurement B (3-5 hours post AT, first treatment 1 h prior to AT): 38.6 dB SPL
Hearing Threshold, Measurement J (3 weeks post AT): 8.1 dB SPL
Hearing Threshold, Measurement C (day 1 post AT): 28.3 dB SPL
Hearing Threshold, Measurement D (day 2 post AT): 19.5 dB SPL
Hearing Threshold, Measurement E (day 3 post AT): 16.5 dB SPL
Hearing Threshold, Measurement F (day 4 post AT): 14.3 dB SPL
Hearing Threshold, Measurement G (day 5 post AT): 12.4 dB SPL
Hearing Threshold, Measurement H (day 6 post AT): 11.2 dB SPL
Hearing Threshold, Measurement I (day 7 post AT): 10.9 dB SPL
Hearing Threshold, Measurement A (prior to acustic trauma (AT)): 5.9 dB SPL
